Data: patent publication US8916606B2, “Therapeutic compositions and methods for targeted delivery of active agents” (William Marsh Rice University, priority 2009, dated 2014)

Assays:
[1] = Solubility and loading of PTX; assay type: physicochemical
Procedure: The PEG-HCCs were purified by sequential dialysis in DMF and water. This was followed by passage through a PD-10 desalting column to remove any coordinated metals or unbound PEG. […] The particles were water soluble. See Berlin et al. for AFM data.
PEG-HCCs were loaded with PTX by dropwise addition of PTX in methanol (5 mg in 1 mL) to a rapidly stirring solution of PEG-HCCs in water (100 mg/L concentration of core HCCs, 5 mL). Next, the solution was bath-sonicated, concentrated to 3 mL by rotary evaporation (to remove the methanol), and then diluted back to the original volume (5 mL) with water. This provided a translucent solution of PTX non-covalently associated with PEG-HCCs (PTX/PEG-HCCs). […] In other words, it is visually apparent if PTX is precipitating because the solution becomes a milky white color when the PTX is overloaded. Applicants have observed that the maximum loading concentration of PTX in the PEG-HCCs in the experiments performed to date is about 12 mg/mL.

bEnd.3 cells = assay: Antimycin A induced oxidative stress in bEnd.3 cells, DHE flow cytometry (Example 13.1); assay type: cell-based; settings: treatment after Antimycin A
Procedure: Mean fluorescence intensity (indicative of oxidative stress) was measured using as control viable cells of 4 separated experiments treated with Antimycin A (AntA) and stained with dihydroethidine (DHE) (“AntA+DHE”). Results are given as % control (unstained cells) to account for minor differences in DHE concentrations and laser fluctuations.
Accordingly, the next series of experiments employed flow cytometry to assess antioxidant effectiveness of PEG-HCCs and targeted PEG-HCCs in cultured brain endothelial cells (b.End3 cells). For these experiments, bEnd.3 cells were cultured to 50-80% confluence in 6 well plates in 2 mL of culture media. The cells were treated with 10 μL of 2 mM Antimycin A (AntA, shown to induce intracellular superoxide radical production). Five minutes later, 1×PBS, PEG-HCC, psPEG-HCC or super oxide dismutase (SOD) was added. The cells were then incubated at 37° C. for 5 minutes. At that time, either 2 μL of 10 mM DHE or a 50% DMSO solution in 1×PBS (control) was added to the wells. The cells were then incubated for another 30 minutes. Next, the cells were placed on ice, trypsinized, and washed twice. The cells were then, counted and stained with SytoxRed (viability stain). 10,000 cells were analyzed per treatment group using the TXRED channel (DHE) and SytoxRed to assess cell viability.

In the case of `CC(=O)O[C@H]1C(=O)[C@@]2(C)[C@H]([C@H](OC(=O)c3ccccc3)[C@]3(O)C[C@H](OC(=O)[C@H](O)[C@@H](NC(=O)c4ccccc4)c4ccccc4)C(C)=C1C3(C)C)[C@]1(OC(C)=O)CO[C@@H]1C[C@@H]2O` [PTX, Paclitaxel], the solubility in water [1] was “insoluble in water”.
For `Cc1c(C)c2c(c(C)c1O)CCC(C)(C(=O)O)O2` (centres unmarked) [Trolox], the “level of oxidative stress (DHE mean fluorescence intensity)” value (bEnd.3 cells) was “not effective”.
